Columns and labels:
HepG2 = test: Antiproliferative activity against human HepG2 cells assessed as reduction in cell viability measured after 48 hrs by MTT assay; assay type: functional, cell-based; conditions: HepG2, 48 h
HeLa = test: cells; conditions: Homo sapiens, 48 h
Description: Antiproliferative activity against human HeLa cells assessed as reduction in cell viability measured after 48 hrs by MTT assay

MCF7 = test: cells; conditions: Homo sapiens, MCF7, 48 h
Description: Antiproliferative activity against human MCF7 cells assessed as reduction in cell viability measured after 48 hrs by MTT assay

B16-F10 = test: Antiproliferative activity against mouse B16-F10 cells assessed as reduction in cell viability measured after 48 hrs by MTT assay; assay type: functional, cell-based; conditions: B16-F10, 48 h
[1] = Inhibition of pig brain tubulin polymerization by spectrophotometric method; assay type: tissue-based, Sus scrofa

SMILES | IC50 (HepG2) [µM] | IC50 (HeLa) [µM] | IC50 (MCF7) [µM] | IC50 (B16-F10) [µM] | IC50 [1] [µM]
CN(c1ccc(F)c(Cl)c1)c1cccc2ncccc12 | 20.1 | 30.9 | 23.6 | 25.5 | 
CCCCN(c1cc(OC)c(OC)c(OC)c1)c1ccnc2cc(Cl)ccc12 | 15.4 | 17.3 | 16.4 | 14.7 | 
COc1cc(N(C)c2ccnc(C)c2)cc(OC)c1OC | 18.6 | 14.1 | 15.3 | 22.5 | 
COc1cc(Nc2ccnc(C)n2)cc(OC)c1OC | 8.18 | 10.6 | 11.5 | 10 | 
CCCCN(c1ccccc1)c1cccc2ncccc12 | 22.1 | 29.9 | 20 | 27.1 | 
CCCCN(c1ccc(OC)cc1)c1c2ccc(Cl)cc2nc2ccc(OC)cc12 | 8.16 | 9.82 | 9.06 | 9.04 | 
COc1cc(Nc2ccnc(C)c2)cc(OC)c1OC | 11.4 | 16.1 | 13.3 | 18.9 | 
COc1cc(N(C)c2ccnc3cc(Cl)ccc23)cc(OC)c1OC | 11.4 | 16.1 | 14.3 | 13.3 | 
COc1ccc(N(C)c2ccnc(C)c2)cc1 | 15.5 | 18.7 | 13.3 | 15.4 | 
CCCCN(c1cc(OC)c(OC)c(OC)c1)c1ccnc(C)n1 | 16.8 | 17 | 20.2 | 19.3 | 
Fc1ccc(Nc2cccc3ncccc23)cc1Cl | 32.1 | 44.9 | 36.4 | 38.1 | 
CCCCN(c1ccc(C#N)cc1)c1cccc2ncccc12 | 30.1 | 42.9 | 29.7 | 33.1 | 
c1ccc(Nc2cccc3ncccc23)cc1 | 26.8 | 30.7 | 26.4 | 28.6 | 
COc1cc(N(C)c2ccnc(C)n2)cc(OC)c1OC | 12.7 | 16.2 | 14.5 | 15.4 | 
COc1ccc(/C=C\c2cc(OC)c(OC)c(OC)c2)cc1O [COMBRETASTATIN A4] |  | 0.023 | 0.019 | 0.014 | 1.84
COc1ccc(Nc2ccnc(C)c2)cc1 | 14.8 | 21 | 21.1 | 16.6 | 
CCCCN(c1ccnc(C)c1)c1cc(OC)c(OC)c(OC)c1 | 15.6 | 16.8 | 17.3 | 18.4 | 
COc1ccc(N(C)c2c3ccc(Cl)cc3nc3ccc(OC)cc23)cc1 | 7.24 | 8.95 | 7.77 | 8.05 | 
CCCCN(c1ccc(F)c(Cl)c1)c1cccc2ncccc12 | 26.7 | 32.1 | 33.8 | 29.5 | 
CN(c1ccccc1)c1cccc2ncccc12 | 16 | 24 | 20.4 | 18.1 | 
CCCCN(c1ccc(OC)cc1)c1ccnc(C)c1 | 18.7 | 19.7 | 22.5 | 20.2 | 
N#Cc1ccc(Nc2cccc3ncccc23)cc1 | 37.5 | 43.2 | 35.6 | 40.4 | 
CN(c1ccc(C#N)cc1)c1cccc2ncccc12 | 28.7 | 36.5 | 30.9 | 25.2 | 

Further compounds by falling IC50 (HepG2), results first:

IC50 (HepG2) [µM] | IC50 (HeLa) [µM] | IC50 (MCF7) [µM] | IC50 (B16-F10) [µM] | SMILES | IC50 [1] [µM]
7 | 9.29 | 8.33 | 7.65 | CCCCN(c1cc(OC)c(OC)c(OC)c1)c1cccc2ncccc12 | 
6.98 | 8.79 | 9.69 | 8.32 | COc1ccc(Nc2ccnc3cc(Cl)ccc23)cc1 | 
6.82 | 8.65 | 9.27 | 7.22 | COc1cc(Nc2ccnc3cc(Cl)ccc23)cc(OC)c1OC | 
6.78 | 13.6 | 12.5 | 10.6 | COc1ccc(Nc2ccnc(C)n2)cc1 | 
6.71 | 8.61 | 9.38 | 9.06 | CCCCN(c1ccc(OC)cc1)c1ccnc(C)n1 | 
5.69 | 6.47 | 7.12 | 6.84 | CCCCN(c1ccc(OC)cc1)c1ccnc2cc(Cl)ccc12 | 
5.24 | 8.27 | 6.36 | 6.58 | COc1cc(N(C)c2cccc3ncccc23)cc(OC)c1OC | 
5.23 | 8.07 | 6.6 | 6.97 | COc1ccc2nc3cc(Cl)ccc3c(Nc3cc(OC)c(OC)c(OC)c3)c2c1 | 
4.46 | 6.8 | 5.67 | 6.54 | COc1cc(Nc2c3ccccc3nc3ccccc23)cc(OC)c1OC | 
4.18 | 6.49 | 5.17 | 5.78 | COc1ccc(N(C)c2c3ccccc3nc3ccccc23)cc1 | 
3.79 | 4.16 | 4.64 | 4.57 | COc1ccc(Nc2cccc3ncccc23)cc1 | 
3.55 | 5.3 | 4.44 | 4.68 | CCCCN(c1cc(OC)c(OC)c(OC)c1)c1c2ccccc2nc2ccccc12 | 
3.5 | 6.08 | 4.86 | 4.66 | CCCCN(c1cc(OC)c(OC)c(OC)c1)c1c2ccc(Cl)cc2nc2ccc(OC)cc12 | 
3.44 | 8.65 | 7.11 | 6.45 | CCCCN(c1ccc(OC)cc1)c1c2ccccc2nc2ccccc12 | 
3.19 | 7.2 | 5.17 | 4.98 | COc1ccc(Nc2c3ccc(Cl)cc3nc3ccc(OC)cc23)cc1 | 
2.83 | 4.01 | 3.13 | 3.79 | COc1ccc2nc3cc(Cl)ccc3c(N(C)c3cc(OC)c(OC)c(OC)c3)c2c1 | 
1.81 | 2.7 | 2.03 | 1.39 | COc1cc(N(C)c2c3ccccc3nc3ccccc23)cc(OC)c1OC | 
1.47 | 3.67 | 1.23 | 2.14 | COc1ccc(Nc2c3ccccc3nc3ccccc23)cc1 | 
1.4 | 6.12 | 5.32 | 4.06 | COc1ccc(N(C)c2ccnc(C)n2)cc1 | 
1.37 | 3.06 | 3.78 | 2.43 | CCCCN(c1ccc(OC)cc1)c1cccc2ncccc12 | 
0.939 | 2.67 | 4.42 | 1.38 | COc1ccc(N(C)c2ccnc3cc(Cl)ccc23)cc1 | 
0.783 | 2.8 | 1.14 | 1.28 | COc1cc(Nc2cccc3ncccc23)cc(OC)c1OC | 

Source: ChEMBL document CHEMBL4823314, “Design, synthesis and biological evaluation of novel acridine and quinoline derivatives as tubulin polymerization inhibitors with anticancer activities” (Bioorg Med Chem, 2021)
